{"source": "patent US12692278B2", "about": "“Synthesis methods and compositions of low intermediate and low dichelate intermediate contrast agents” (priority 2021, dated 2026)", "key": {"[1]": {"format": "physicochemical", "excerpt": "Ironically, Gd-DTPA has a more favorable binding constant than does Gd-DOTA at pH 7.4. For less basic ligands like Gd-DTPA-BMA and DOTA-(gly)4, the experimental values are closer to the theoretical thermodynamic stability constant because there is less competition from available protons at pH 7.4."}, "[2]": {"test": "Free Gd3+ baseline / in vial, xylenol orange", "format": "physicochemical", "excerpt": "Additionally or alternately, an improved version of the xylenol orange titration of free Gd3+ in the USP can be used as both an in-process check and a final product check. To obtain a limit of detection adequate for the product produced in the above claims, UV spectroscopy must be used in conjunction with the titration to measure the xylenol orange/free Gd reaction. Furthermore, an indirect measure of metastable intermediates is obtained when the titration reaction is allowed to proceed past the initial reaction of xylenol orange and free Gd. This is because xylenol orange will pull Gd from the metastable intermediates over time. […] Free Gadolinium was determined by using the spectrometric xylenol orange technique described in previous studies."}, "[3]": {"test": "Feasibility of acid precipitation, free Gd3+ by xylenol orange", "format": "physicochemical", "settings": "12 hour sample, 1 hr 0.1 M HCl, buffer to pH 7.0, filtration", "method": "The feasibility of acid precipitation as a method for making Gd-DOTA with low metastable intermediate forms was tested.\n(§1) Ten samples were tested using the improved spectrometric xylenol orange method after 1 hr exposure to acid (0.1 M HCl), buffer to pH 7.0, and filtration of the precipitate. • 12 hour Example 1A sample was used at 803 ppm Gd3+ • After acid precipitation (N=5) • 8.6+/−9.2 ppm Gd3+ range: 15.9 ppm Gd3+ to undetectable\nas §1, with “1B” for “1A”, “undetectable.” for “undetectable”"}, "[4]": {"test": "Free Gd(III) in incompletely synthesized complex solution", "format": "physicochemical", "settings": "mean of five reactions", "method": "Then, the content of free DOTA, free gadolinium, and complex was determined, and the final content of excess free DOTA was set. Five reactions were run, using 4.05 g of DOTA, 15 ml water, and 1.78 g of gadolinium oxide. Ten spectroscopic measurements using Xylenol orange were conducted. […] This is the molar amount of xylenol orange added to each reaction product. One can use: Understanding that the denominator is a constant and Abs^573 is the number of free Gd(III) ions that react with the xylenol orange. This is a conservative measure of ppm, given by the ratio of free gadolinium and total gadolinium in the reactant (×10^6). Another possible definition, which would give a higher number (less conservative) is simply comparing free gadolinium to complexed gadolinium, which would mean ppm of free gadolinium for every million complexed gadolinium."}, "[5]": {"test": "Transmetallation with ZnCl solution", "format": "physicochemical", "settings": "free Gd; 10% by weight ZnCl solution; unit not given", "excerpt": "10% by weight ZnCl solution was used to support the serum results, arguing that Zn substitution of Gd in the chelate quantifies the stability of the Gd-DOTA in much the same way that metals in serum block Gd3+ recombination with the chelate, but with more precision, since the contents of bovine serum is variable among mammals."}, "[6]": {"test": "Feasibility of excess DTPA, free Gd3+ by xylenol orange", "format": "physicochemical", "settings": "new 12 hour sample before DTPA", "method": "The metastable intermediate concentration is determined by Example 3, and associated methods described in the present application. A Gd-DOTA synthesis containing metastable intermediates is heated to 95° C. in the presence of a stoichiometric amount of DTPA sufficient to consume all the metastable intermediates. The presence of metastable intermediates can be measured as a function of time. The reaction is continued until a desired metastable intermediate content is obtained. Depending on the amount of free DOTA thus liberated, the free DOTA can be reacted with a positively charged resin, as is known in the art. Alternatively, the free DOTA may serve as a buffer against free Gd3+ formation, as is permitted in some drug formulations. Ten samples were prepared by adding stoichiometric amounts of DTPA to counter the excess Gd3+ and stored at room temperature for 24 hours. Samples were tested using the improved spectrometric xylenol orange method."}, "[7]": {"test": "pH controlled synthesis, free Gd versus synthesis time", "format": "physicochemical", "method": "Here, Example 1A is modified by the addition of gadolinim oxide in its entirety at first and immediately after the introduction of the DOTA, and this procedure is used to produce batch A of Gd-DOTA. Batch B is produced using the following modified procedure.\n• 1. Heat reactor to 95° C. • 2. Charge water with all of gadolinium oxide • 3. Stir (stir unless otherwise indicated, nominal rate 300 rpm) until the solution is clear • 4. Add sufficient DOTA to obtain a pH of 4 • 5. When pH is >5 charge sufficient DOTA to reach pH of 4 • 6. Stir until uniformly distributed in the water, and clear • 7. If pH<4, then go to step 9 • 8. Go to step 4 • 9. Divide remaining portion of DOTA into 5 parts • 10. Add 1 part of remaining DOTA • 11. Stir until uniformly distributed in the water, and clear • 12. If DOTA remains to be added go to step 10 • 13. Continue to cook for a total of 12 hours Results"}, "[8]": {"test": "Free Gd3+ after exposure to bovine serum", "format": "physicochemical", "method": "To show these metastable intermediates readily evolve into free Gd3+, Gd-DOTA was placed in a solution of bovine serum and the amount of Gd3+ was measured.\nBovine blood was obtained at a local slaughterhouse, citrated, centrifuged and serum was obtained and frozen. In tests, serum was slowly heated to body temperature and 1% Gd-DOTA by weight was added to serum and placed on rocker for 30 minutes. Ten samples were tested for each test article."}, "[9]": {"test": "Feasibility of cation exchange (sodium polystyrene sulfonate), free Gd3+ by xylenol orange", "format": "physicochemical", "settings": "before sodium polystyrene sulfonate treatment", "method": "Feasibility of cation exchange as a method of making Gd-DOTA with low metastable intermediates\nUsing sodium polystyrene sulfonate, rather than the polymer described above.\nTen samples were stored at room temperature with a stoichiometric amount of sodium polystyrene sulfonate.\nSamples were tested using the improved spectrometric xylenol orange method."}}, "data": [{"molecule": "CNC[C@H](O)[C@@H](O)[C@H](O)[C@H](O)CO.O=C([O-])CN1CCN(CC(=O)[O-])CCN(CC(=O)O)CCN(CC(=O)[O-])CC1.[Gd+3]", "note": "[Gd-DOTA, gadoterate meglumine, reference compound]", "values": [{"measurement": "stability lower at pH 7.4", "setting": "[1]", "result": "7 orders of magnitude"}, {"measurement": "in-bottle measured free gadolinium", "setting": "[2]; commercial product stored in bottle", "result": "10^13 Gd3+ ions in 100 ml of GCA product"}]}, {"molecule": "O=C([O-])CN1CCN(CC(=O)[O-])CCN(CC(=O)O)CCN(CC(=O)[O-])CC1.[Gd+3]", "note": "[Example 2A, Gd-DOTA]", "values": [{"measurement": "Gd3+ after acid precipitation, range (upper value, down to undetectable)", "setting": "[3]", "result": "≤ 15.9", "unit": "ppm"}, {"measurement": "Gd3+ after acid precipitation", "setting": "[3]; N=5", "result": "8.6+/−9.2 ppm"}]}, {"molecule": "Gd-DOTA [Example 4]", "values": [{"measurement": "Free Gd(III), MEAN", "setting": "[4]", "result": "30,989 +/− 9410 ppm"}]}, {"molecule": "CNC[C@H](O)[C@@H](O)[C@H](O)[C@H](O)CO.O=C([O-])CN1CCN(CC(=O)[O-])CCN(CC(=O)O)CCN(CC(=O)[O-])CC1.[Gd+3]", "note": "[Example 1, Gd-DOTA]", "values": [{"measurement": "Transmetallation", "setting": "[5]", "result": "88 +/− 16.8"}, {"measurement": "Gd3+ of starting sample", "setting": "[6]", "result": 2146, "unit": "ppm"}, {"measurement": "Free Gd", "setting": "[7]; synthesis time 4 hrs", "result": "17,467 +/− 9.4 ppm"}, {"measurement": "Free Gd", "setting": "[7]; synthesis time 8 hrs", "result": "3,448 +/− 8.9 ppm"}, {"measurement": "Free Gd", "setting": "[7]; synthesis time 12 hrs", "result": "803 +/− 8.1 ppm"}, {"measurement": "Free Gd+ after serum", "setting": "[8]; 1% Gd-DOTA by weight in bovine serum, body temperature, rocker 30 minutes, ppm adjusted to pre-diluted level", "result": "88 +/− 16.8 ppm"}, {"measurement": "In Serum", "setting": "[8]; free Gd, unit not given", "result": "2.9 +/− 0.8"}, {"measurement": "Baseline Free Gd3+", "setting": "[2]; before serum, ppm adjusted to pre-diluted level at drug concentration", "result": "0.77 +/− 0.92 ppm"}, {"measurement": "In Vial", "setting": "[2]; free Gd, no unit printed in this table (ppm in the 1st table)", "result": "0.77 +/− 0.92"}, {"measurement": "Gd3+ of starting sample", "setting": "[9]", "result": 2146, "unit": "ppm"}]}]}
